Paper PMC8247401, “Evaluation of clinical and genetic factors in the population pharmacokinetics of carbamazepine” (British Journal of Clinical Pharmacology, 2020)
Like-named read-outs stand apart in the source and are kept apart here.

Tests used:
[1] = Population PK model (NONMEM) of plasma CBZ and 3 metabolites after oral CBZ; conditions: for effect of concomitant treatment as covariate on CBZ clearance/metabolism: categorical covariate on CLTOT in the population PK model, small numbers of subjects; for % Interindividual variability of V2: V2 shared by the 3 metabolites; for clearance: human, plasma, oral; for V2, volume of distribution of metabolites: same V2 estimated for CBZE, 2OH-CBZ and 3OH-CBZ, apparent
[2] = test system: microsomal epoxide hydrolase; conditions: concurrent brivaracetam therapy in patients on CBZ; cited from earlier work
[3] = set-up: method as in PMID 6491988; conditions: fixed, not estimated; CL2 (to CBZE)=CLTOT*(1-FM1), CL3=CL4=CLTOT*FM1/2; cited from earlier work
[4] = cited from earlier work
[5] = set-up: method as in PMID 17382827; conditions: patients treated with CBZ, cited from earlier work
[6] = 70-kg patient prescribed 400 mg CBZ; model assumes 0.65 of CBZ converted to CBZE; cited from earlier work
[7] = final model, log-normal distribution

NC(=O)OCC(COC(N)=O)c1ccccc1 [felbamate]
effect of concomitant treatment as covariate on CBZ clearance/metabolism [1]: None of those antiepileptic drugs (AEDs) achieved a significant effect

CCC[C@@H]1CC(=O)N([C@@H](CC)C(N)=O)C1 [Brivaracetam]
rise in CBZE levels, median [2]: 83.9% | rise in CBZE levels, range [2]: 57.9–341.7%

NC(=O)N1c2ccccc2C=Cc2ccc(O)cc21 [3OH‐CBZ, 3‐hydroxycarbamazepine]
% Interindividual variability of CL4E [1, 7]: 34.5% | % Interindividual variability of V2 [1, 7]: 149.7% | clearance [1]: 9050 mL/min | V2, volume of distribution of metabolites ([1]; population mean): 39.2 L

COc1ccc2[nH]c([S+]([O-])Cc3ncc(C)c(OC)c3C)nc2c1 (stereo not shown) [omeprazole]
effect of concomitant treatment as covariate on CBZ clearance/metabolism [1]: Neither was found to affect metabolism of CBZ significantly

NC(=O)N1c2ccccc2C=Cc2ccccc21 [CBZ, Carbamazepine]
FM1 (metabolite fraction) [3]: 0.64 | fraction of CBZ converted to CBZE assumed in this model [4]: 0.36 | parent CBZ primarily converted to CBZE ([4]; prior mass balance information): 36% | fraction of CBZ converted to CBZE assumed in the model of Jiao et al. ([4]; ref Jiao et al. (58)): 0.65 | patients experiencing a hypersensitivity reaction [5]: up to 10% | patients experiencing a hypersensitivity reaction ([5]; listed as Carbamazepine): ~ 10% | % Interindividual variability of CLTOT [1, 7]: 25.3% | % Interindividual variability of FM1 [1, 7]: 6.3% | % Interindividual variability of KASTAR [1, 7]: 75.3% | % Interindividual variability of V1 [1, 7]: 13.6% | V1, central distribution volume of CBZ ([1]; population mean, final model, apparent (V/F)): 161 L | CLTOT, total clearance of CBZ ([1]; population mean, final model, oral dosing, apparent (CL/F), typical value non-induced, 400 mg daily dose, no phenytoin): 1.96 L/h | KASTAR ([1]; population mean, absorption rate constant KA=CLTOT/V1+KAstar): 0.409 h⁻¹

CCC1(c2ccccc2)C(=O)NC(=O)NC1=O [phenobarbital]
effect of concomitant treatment as covariate on CBZ clearance/metabolism [1]: None of those antiepileptic drugs (AEDs) achieved a significant effect

NC(=O)N1c2ccccc2C=Cc2cc(O)ccc21 [2OH‐CBZ, 2‐hydroxycarbamazepine]
% Interindividual variability of CL3E [1, 7]: 42.3% | % Interindividual variability of V2 [1, 7]: 149.7% | clearance [1]: 12100 mL/min | CL3E induction effect ([1]; multiplier (fold) on CL3E for induced period vs non-induced): 1.63 | V2, volume of distribution of metabolites ([1]; population mean): 39.2 L

NC(=O)N1c2ccccc2C2OC2c2ccccc21 (stereo not shown) [CBZE, carbamazepine 10,11‐epoxide]
CL estimate for CBZE in a previous population PK model [6]: 28 L/h | reduction of clearance of CBZE ([1]; EPHX1-416G/G genotype (3 subjects) compared with EPHX1-416G/A and -416A/A): approximately 50% | % Interindividual variability of CL2E [1, 7]: 27.9% | % Interindividual variability of V2 [1, 7]: 149.7% | clearance [1]: 162 mL/min | Cov.Eff.(EPHXAGHOM on CL2E) ([1]; multiplier on CBZE clearance in EPHX1-416G/G homozygotes (n=3) vs G/A and A/A): 0.502 | V2, volume of distribution of metabolites ([1]; population mean): 39.2 L
